From ChEMBL document CHEMBL3987221, “The Australian National University Dept Of Immunology Pathogen Box Compounds Screened” (2018)
The source made the active and inactive calls. The rule behind the calls is not given here.

Columns and labels:
[1] = target: Ferrochelatase, mitochondrial (Homo sapiens) (UniProt P22830); details: at 10 µM
Description: (§1) Compound was evaluated for the inhibition of human FECH at 10uM

[2] = target: Porphobilinogen deaminase (Homo sapiens) (UniProt P08397); details: at 100 µM
Description: (§2) Compound was evaluated for the inhibition of human HMBS at 100uM

[3] = target: T1, Ferrochelatase, mitochondrial (Homo sapiens) (UniProt P22830); details: at 10 µM; remark: listed apart in the source
T1 sequence (whole entry): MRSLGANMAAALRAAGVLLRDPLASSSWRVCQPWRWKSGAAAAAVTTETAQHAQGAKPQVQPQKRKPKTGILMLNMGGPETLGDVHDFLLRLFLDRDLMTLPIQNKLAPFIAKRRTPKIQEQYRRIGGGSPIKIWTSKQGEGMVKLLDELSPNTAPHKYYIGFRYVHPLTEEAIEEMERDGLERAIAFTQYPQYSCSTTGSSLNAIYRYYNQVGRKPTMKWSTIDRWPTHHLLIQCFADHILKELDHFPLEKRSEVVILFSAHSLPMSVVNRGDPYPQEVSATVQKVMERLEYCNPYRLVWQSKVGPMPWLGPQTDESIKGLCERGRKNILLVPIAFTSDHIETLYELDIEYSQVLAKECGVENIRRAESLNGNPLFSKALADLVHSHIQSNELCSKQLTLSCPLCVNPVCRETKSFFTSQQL
Description: as §1

[4] = target: T2, Porphobilinogen deaminase (Homo sapiens) (UniProt P08397); details: at 100 µM; remark: listed apart in the source
T2 sequence (whole entry): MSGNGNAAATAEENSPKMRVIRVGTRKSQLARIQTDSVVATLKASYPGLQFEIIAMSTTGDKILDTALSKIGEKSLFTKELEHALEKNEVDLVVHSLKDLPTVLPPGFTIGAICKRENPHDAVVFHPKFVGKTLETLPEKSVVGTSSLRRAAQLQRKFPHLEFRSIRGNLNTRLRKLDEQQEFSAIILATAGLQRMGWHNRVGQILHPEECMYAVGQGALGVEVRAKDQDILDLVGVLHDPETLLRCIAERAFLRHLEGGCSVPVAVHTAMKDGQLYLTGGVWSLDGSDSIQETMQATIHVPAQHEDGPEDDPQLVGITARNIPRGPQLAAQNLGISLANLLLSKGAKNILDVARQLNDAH
Description: as §2

inhibition [1] | inhibition [2] | inhibition [3] | inhibition [4] | Compound
inactive | inactive |  |  | MMV688978
 |  | inactive | inactive | CCCNC(=O)N1CCC2(CC1)CC(=O)c1cc(C)ccc1O2
 |  | inactive | inactive | c1ccc(C[C@@H]2CN(c3nccc(Oc4ccc(-n5ccnc5)cc4)n3)CCN2)cc1
 |  | inactive | inactive | COC(=O)c1cccc2oc(-c3cccc(OC)c3NC(=O)c3cc(-c4ccccc4)on3)nc12
 |  | inactive | inactive | NS(=O)(=O)c1cccc(-c2ccc3ncc(N4CCOCC4)nc3c2)c1
 |  | inactive | inactive | CCN(CC)S(=O)(=O)c1ccc(C(=O)Nc2cc(C)nn2-c2nc(C)c(C)c(=O)[nH]2)cc1
 |  | inactive | inactive | O=C(Nc1ccc(F)c(-c2nc3cc(-c4ccccc4)cnc3[nH]2)c1)N1CCCC1
 |  | inactive | inactive | CCCn1nnc(NC(=O)COc2ccc(C3CCCCC3)cc2)n1
 |  | inactive | inactive | CC(=O)N1CCN(c2ccc(Oc3ccc(Cl)cc3O)cc2)CC1
 |  | inactive | inactive | O=C(N[C@H](Cc1ccccc1)C(=O)Nc1ccccc1N1CCOCC1)c1cccs1
 |  | inactive | inactive | COc1cc(C(F)(F)F)nc2ccc(C)c(N)c12
 |  | inactive | inactive | CCCc1ccc(S(=O)(=O)Nc2ccc(CN3CCN(CC4CC4)CC3)cc2)cc1
 |  | inactive | inactive | c1ccc2c(c1)CN(CC1CC1)CC1(CCN(Cc3c[nH]c4cnccc34)CC1)O2
 |  | inactive | inactive | COc1cc(-c2cc(-c3ccc(S(C)(=O)=O)cc3)cnc2N)ccc1O
 |  | inactive | inactive | COc1ccc(C2CC(c3cccs3)=NN2C(=O)c2ccco2)cc1OC (stereo not given)
